In the supplement of paper PMC10290057:
Counter-ions that a name gives are not always drawn.

Assays:
[1] = tested on: HCT116; test: AC50 cell viability (CellTiter-Glo); higher = less potent; details: 48 h
[2] = tested on: HCT116; test: efficacy (fitted maximal change in viability relative to DMSO control); higher = less cytotoxic (negative = loss of viability); details: 48 h
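Throughout, for AC50 cell viability (CellTiter-Glo): HCT116 colorectal carcinoma cells screened at five concentrations per compound, luminescent viability scaled between DMSO wells and empty wells on each plate, curves fitted per compound.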
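Throughout, for efficacy (fitted maximal change in viability relative to DMSO control): Luminescence-based viability readout, five doses per compound, normalized against on-plate DMSO and empty-well controls, followed by dose-response curve fitting for every drug.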

Row | SMILES | AC50 cell viability [1] | efficacy [2]
1 | OC[C@H]1O[C@@H]2[C@@H](OC\3=N\C(=N)\C=C/[N@@]23)[C@@H]1O [Cyclocytidine hydrochloride] | 0.186 µM | -59.3%
2 | C[N]1C=C(C2=CC=CC=C12)\C3=C(\C(=O)NC3=O)C4=C[N](C5CCN(CC5)CC6=NC=CC=C6)C7=C4C=CC=C7 [Enzastaurin] | 14.8 µM | -56.4%
3 | COC[C@H]1OC(=O)C2=COC3=C2[C@@]1(C)\C4=C(\[C@@H]5CC[C@H](O)[C@@]5(C)C[C@H]4OC(C)=O)C3=O [17-hydroxy Wortmannin] | 20.9 µM | -59.9%
4 | N#Cc1ccnc(Nc2cc(C3CCN(C4COC4)CC3)cc(N3CCC(F)(F)C3)n2)c1 [GNE-3511] | 0.833 µM | -77.1%
5 | C[C@@H]1CC(=O)Nc2cccc(-c3ccc4c(c3)c(-c3cnn(C)c3)nn4C)c2N1 [CPI-637] | 11.8 µM | -82.6%
6 | c1cc(Nc2cc(C3CC3)n[nH]2)nc(Nc2ccc3nc[nH]c3c2)n1 [APY29] | 0.235 µM | -66.4%
7 | CCCC1(CCC)CCC2(CCN(CCCN(CC)CC)C2)CC1 [Atiprimod] | 2.63 µM | -99.3%
8 | CN[C@@H](C)C(=O)N[C@H]1CCCC[C@H]2CC[C@@H](C(=O)N[C@@H](c3ccccc3)c3cn(CCCCc4ccc(CCCCn5cc([C@@H](NC(=O)[C@@H]6CC[C@@H]7CCCC[C@H](NC(=O)[C@H](C)NC)C(=O)N76)c6ccccc6)nn5)cc4)nn3)N2C1=O [SM-164] | 23.5 µM | -89.2%
9 | C[C@@H]1CC(=O)Nc2cccc(-c3cnn(C(C)(C)C)c3)c2N1 [CPI-703] | 16.6 µM | -37.4%
10 | CN1CCC(CC1)COC2=CN=C(N=C2)C3=CC(=CC=C3)CN4/N=C(\C=C/C4=O)C5=CC(=CC=C5)C#N | 7.42 µM | -30.6%
11 | CCOC(=O)N1CCN(/[N+]([O-])=N/Oc2ccc([N+](=O)[O-])cc2[N+](=O)[O-])CC1 | 18.6 µM | -71.8%
12 | O=C(c1c(F)ccc(N[S+](=O)([O-])N2CC[C@@H](F)C2)c1F)c1c[nH]c2ncc(-c3cnc(C4CC4)nc3)cc12 [PLX-8394] | 13.2 µM | -51.7%
13 | NC/1=N/C2=C([NH]C=N2)C(=S)N1 [Tioguanine] | 0.742 µM | -85.8%
14 | CC1(C)CC\C2=C(/O1)C3=C(C=CC=C3)C(=O)C2=O [beta-Lapachone] | 14.8 µM | -103%
15 | CN(C)CCN(C)C(=O)c1ccc(NC(=O)Nc2ccc(-c3nc(N4CCOCC4)c4ccn(CC(F)(F)F)c4n3)cc2)cc1 | 0.263 µM | -118%
16 | CCN(CC)Cc1ccc2cc(COC(=O)Nc3ccc(C(=O)NO)cc3)ccc2c1 [Givinostat hydrochloride] | 0.263 µM | -88.8%
17 | COC1=C(OCCCN2CCOCC2)C=CC\3=C1/N=C(/NC(=O)C4=CN=C(N)N=C4)N5CC/N=C35 [Copanlisib] | 0.0679 µM | -57.4%
18 | N[S+](=O)([O-])OC[C@@H]1C[C@@H](n2ccc3c(N[C@H]4CCc5ccccc54)ncnc32)C[C@@H]1O [MLN-4924] | 0.235 µM | -65.7%
19 | CC1=C(OC2=CC3=NC=N[N]3C=C2)C=CC(=C1)NC4=NC=NC5=C4C=C(N\C6=N\C(C)(C)CO6)C=C5 [Tucatinib] | 20.9 µM | -71.1%

Row | SMILES | AC50 cell viability [1] | efficacy [2]
20 | C[C@@H](Nc1cc(F)cc(F)c1)c1cc(C(=O)N(C)C)cc2c(=O)cc(N3CCOCC3)oc12 [AZD-8186] | 10.5 µM | -78.7%
21 | O=C(Nc1ccncc1)C(=O)c1cn(Cc2ccc(Cl)cc2)c2ccccc12 [Indibulin] | 0.295 µM | -70.9%
22 | COC1=CC=C(C=C1)C2=NC3=CC(=CC=C3[NH]2)/C4=N/NC(=O)CC4C (configuration not stated) [Pimobendan] | 9.34 µM | -48.6%
23 | CNc1nc(-c2ccc3c(N)n[nH]c3c2)cc(N2C[C@@H](C(=O)NC3CCCCC3)CC[C@H]2C)n1 | 18.6 µM | -110%
24 | CN(C)CC[C@H](CSc1ccccc1)Nc1ccc([S+](=O)([O-])NC(=O)c2ccc(N3CCN(Cc4ccccc4-c4ccc(Cl)cc4)CC3)cc2)cc1[N+](=O)[O-] [ABT-737] | 20.9 µM | -68.4%
25 | Fc1cc(-c2cccc3ncc(-c4cnn(C5CCNCC5)c4)nc23)cc(F)c1CN1CCOCC1 [NVP-BSK805] | 8.33 µM | -91%
26 | NC1CCC(N[C@@H]2C[C@H]2c2ccccc2)CC1 (some centres not stated) [ORY-1001] | 16.6 µM | -36%
27 | C[C@@H]1C[C@H]2[C@@H]3\C=C(C)/C4=C/C5=C(C[C@]4(C)[C@H]3[C@@H](O)C[C@]2(C)[C@@]1(O)C(=O)CO)C=N[N]5C6=CC=CC=C6 [Deacetyl cortivazol] | 26.3 µM | -121%
28 | COC1=CC2=NC=CC(=C2C=C1)OC3=CN=C(NC(=O)C/4=C(C)/N(CC(C)(C)O)N(C4=O)C5=CC=CC=C5)C=C3 [AMG-458] | 16.6 µM | -71.6%
29 | CCC1=C2C=C(OC(=O)N3CCC(CC3)N4CCCCC4)C=CC2=NC\5=C1CN6C(=O)\C7=C(/C=C56)[C@@](O)(CC)C(=O)OC7 [Irinotecan] | 1.18 µM | -80%
30 | C[C@]1(O)CC(C1)C2=NC(=C3[N]2C=CN=C3N)C4=CC5=C(C=C4)C=CC(=N5)C6=CC=CC=C6 (configuration not stated) [Linsitinib] | 23.5 µM | -46.3%
31 | C=CCNC1=C2C[C@@H](C)C[C@H](OC)[C@H](O)[C@@H](C)/C=C(\C)[C@H](OC(N)=O)[C@@H](OC)/C=C\C=C(/C)C(=O)NC(=CC1=O)C2=O [Tanespimycin] | 3.72 µM | -65.7%
32 | Oc1ccc([C@@H]2Oc3ccc(O)cc3[C@@H]3CCC[C@@H]32)cc1 [Erteberel] | 7.42 µM | -73.8%
33 | COC1=CC=CC(=C1/C2=N/CC3=C(N=C(NC4=CC(=C(C=C4)C(O)=O)OC)N=C3)C5=CC=C(Cl)C=C25)F [Alisertib] | 0.417 µM | -41.5%
34 | c1ccc(CNc2nc(N3CCOc4ccccc43)nc3c2CCCC3)cc1 | 20.9 µM | -42.4%
35 | CCC[S+]([O-])c1ccc2[nH]c(NC(=O)OC)nc2c1 (configuration not stated) [Albendazole oxide] | 13.2 µM | -45.3%
36 | C/C1=C/C[C@@H](/C(C)=C/c2csc(C)n2)OC(=O)C[C@H](O)C(C)(C)C(=O)[C@H](C)[C@@H](O)[C@@H](C)CCC1 [Epothilone D] | 0.0166 µM | -60.3%
37 | CN(C)CC(=O)N1CCC(CC1)C2=CC=C(NC(=O)C3=NC(=C[NH]3)C#N)C(=C2)\C4=C\CCCC4 | 16.6 µM | -80.1%
38 | C#Cc1cccc(Nc2ncnc3cc(OC)c(OCCCCCCC(=O)NO)cc23)c1 [CUDC-101] | 0.332 µM | -81.3%

Row | SMILES | AC50 cell viability [1] | efficacy [2]
39 | CN1CCCN(CC1)C2=CC=C3C(=O)\C(=C/4SC5=C(C=CC=C5)N4C3=N2)C(=O)NCC6=CN=C(C)C=N6 [CX-5461] | 1.35 µM | -49.8%
40 | Cn1c(Nc2ccc(C(F)(F)F)cc2)nc2cc(Oc3ccnc(-c4nc(C(F)(F)F)c[nH]4)c3)ccc21 [CHIR-265] | 5.25 µM | -108%
41 | Clc1ccc(C(Cn2ccnc2)OCc2c(Cl)cccc2Cl)c(Cl)c1 (configuration not stated) [Isoconazole nitrate] | 23.5 µM | -77.2%
42 | Cc1c(CN2CCN([S+](C)(=O)[O-])CC2)sc2c(N3CCOCC3)nc(-c3cnc(N)nc3)nc12 [GNE-477] | 0.59 µM | -57.8%
43 | Cn1nccc1Nc1nccc(-c2cc3c(s2)C(C)(C)N(CCN2CCOCC2)C3=O)n1 | 0.525 µM | -57.4%
44 | NC[C@@](O)(c1ccc(Cl)cc1)c1ccc(-c2cn[nH]c2)cc1 | 7.42 µM | -109%
45 | COC(=O)C/1=C(C)/N/C(=C(\C1C2=CC(=CC=C2)[N+]([O-])=O)C(=O)OCCCN3CCC(CC3)(C4=CC=CC=C4)C5=CC=CC=C5)C (configuration not stated) [Niguldipine] | 8.33 µM | -98.1%
46 | Nc1n[nH]c2nnc(-c3c(-c4ccccc4)nn4ccccc34)cc12 | 18.6 µM | -41.3%
47 | O=C(/C=C/C=C/c1ccc2c(c1)OCO2)N1CCCCC1 [Piperine] | 20.9 µM | -46%
48 | C[C@]\12CC[C@H](O)CC1=C/CC3C2CC[C@@]\4(C)C3C\C=C4[N]5C=NC6=C5C=CC=C6 (some centres not stated) [Galeterone] | 5.9 µM | -43.8%
49 | CC\1=C(C(\N=C(/N1)C2=CC(=NC=C2)Cl)C3=C(F)C=C(Cl)C=C3)/C(=O)NC4=C(F)C=C5[NH]N=CC5=C4 (configuration not stated) [GSK-25] | 29.5 µM | -97.8%
50 | CCC1=C2CN3C(=O)\C4=C(/C=C3/C2=NC5=CC=C(O)C=C15)[C@@](O)(CC)C(=O)OC4 [SN-38] | 0.0661 µM | -79.2%
51 | CC(C)N1N/C(=C2\C=c3cc(O)ccc3=N2)c2c(N)ncnc21 [Torkinib] | 5.25 µM | -125%
52 | [O-]C(=O)C1=C(C(=C(Cl)C(=C1Cl)Cl)Cl)C/2=C/3\C=C(I)/C(=O)/C(=C3OC4=C2C=C(I)C(=C4I)[O-])I [Rose Bengal disodium] | 16.6 µM | -47%
53 | Cc1cc(N2CCOCC2)ccc1Nc1nc(NC2CCCCC2)c2nc[nH]c2n1 | 6.61 µM | -59.2%
54 | CCNC(=O)Nc1ccc(Oc2ncnc(N)c2/C=N/OC)cc1Cl | 23.5 µM | -70.7%
55 | COc1ccc(-c2ccc3c(N4CCOC[C@@H]4C)nc(N4CCOC[C@@H]4C)nc3n2)cc1CO [AZD-8055] | 0.295 µM | -51.6%
56 | COC(=O)[C@H]1[C@@H](O)[C@@]2(O)c3c(OC)cc(O[C@@H]4O[C@@H]([C@@H](O)CO)CO[C@H]4OC)cc3O[C@@]2(c2ccc(OC)cc2)[C@@H]1c1ccccc1 [Episilvestrol] | 8.33 µM | -54.9%
